The results in this text go back to patent US9017974B2, “Method for the synthesis of porphyrin-phospholipid conjugates” (priority 2011, dated 2015).

Holding throughout (format): biochemical
Test [1] addresses Lipase from Thermomyces lanuginosus (LTL) (Thermomyces lanuginosus, UniProt O59952). The following applies: pH 8.
The target in test [2] is T1, Lipase from Rhizomucor miehei (Rhizomucor miehei, UniProt P19515).
T1 sequence (P19515 95-363): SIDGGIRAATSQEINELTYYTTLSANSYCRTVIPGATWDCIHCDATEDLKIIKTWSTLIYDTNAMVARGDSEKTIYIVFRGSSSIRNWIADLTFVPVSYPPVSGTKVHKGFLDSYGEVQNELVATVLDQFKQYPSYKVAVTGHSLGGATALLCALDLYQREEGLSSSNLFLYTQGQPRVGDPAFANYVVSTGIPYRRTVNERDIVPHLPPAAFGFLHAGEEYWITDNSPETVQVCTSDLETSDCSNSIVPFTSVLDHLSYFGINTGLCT
The following applies: 37 C, 3 hours, 0.025% Triton X100, 5 mM Tris pH 8, HPLC/MS.

The target of test [3] is Lipase from Pseudomonas cepacia (Burkholderia cepacia, UniProt P22088). The following applies: 37 C, 3 hours, 0.025% Triton X100, 5 mM Tris pH 8, HPLC/MS.
Lipase from Pseudomonas cepacia, sequence (P22088 45-364): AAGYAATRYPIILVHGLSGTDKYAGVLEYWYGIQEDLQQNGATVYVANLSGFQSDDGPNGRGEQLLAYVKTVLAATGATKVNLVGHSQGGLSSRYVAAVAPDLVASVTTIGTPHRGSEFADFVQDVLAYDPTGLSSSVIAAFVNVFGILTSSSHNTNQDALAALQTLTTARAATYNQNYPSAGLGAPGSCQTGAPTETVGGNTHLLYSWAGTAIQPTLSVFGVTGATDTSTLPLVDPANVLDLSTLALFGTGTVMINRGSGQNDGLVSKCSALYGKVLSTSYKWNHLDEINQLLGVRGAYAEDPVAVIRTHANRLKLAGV

Lipase from Thermomyces lanuginosus (LTL), sequence (O59952 23-291): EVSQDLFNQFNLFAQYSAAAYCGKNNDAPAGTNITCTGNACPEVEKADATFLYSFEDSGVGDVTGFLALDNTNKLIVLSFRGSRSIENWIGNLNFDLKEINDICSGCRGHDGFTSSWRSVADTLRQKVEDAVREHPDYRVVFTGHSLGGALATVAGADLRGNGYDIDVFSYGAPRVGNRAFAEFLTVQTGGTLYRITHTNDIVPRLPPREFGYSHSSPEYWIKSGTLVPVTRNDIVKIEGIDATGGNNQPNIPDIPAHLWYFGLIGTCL

For `C=Cc1c(C)c2cc3nc(c4c5[nH]c(cc6nc(cc1[nH]2)C(C)=C6CC)c(C)c5C(=O)C4)[C@@H](CCC(=O)O[C@H](COC(=O)CCCCCCCCCCCCCCC)COP(=O)([O-])OCC[N+](C)(C)C)[C@@H]3C` [sn-2 pyro-lipid], the “cleavage of pyro-lipid regioisomer by LTL” value in test [1] was “selectively cleaved”. In addition, in test [2], the “cleavage of pyro-lipid regioisomer by lipase from Rhizomucor miehei” value was “preferentially cleaved”. In test [3], the “cleavage of pyro-lipid regioisomer by lipase from Pseudomonas cepacia” value is “preferentially cleaved”.
